Test [1] has as its target T1, Mcl-1/Bim interaction, recombinant human Mcl-1 (171-327) (Homo sapiens, UniProt Q07820).
T1 construct: made in house
Briefly: Cell free Mcl-1: Bim Affinity Assay (Mcl-1 HTRF). Format: binding. The method, boiled down: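 Biotin-Bim(51-76) peptide, TR-FRET readout, overnight incubation; IC50 from duplicate competition curves, 4-parameter fit.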

For test [2], the system named is OPM-2 human multiple myeloma cell line. The experiment in a line: Cell Viability Assay (OPM-2 10 FBS). Format: cell-based. As to conditions: OPM-2 cells, CellTiter-Glo. The method, boiled down: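 IC50 from 4-parameter logistic fit of CellTiter-Glo luminescence. 3000 cells/well, 10% FBS medium, serial compound dilutions, 16 h, 37 °C/5% CO2; read 25 min post-reagent.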

Setting [3] is: TR-FRET, 0.1 nM Mcl-1 (171-327), 0.05 nM biotin-Bim (51-76).
[4] abbreviates: Homo sapiens, OPM-2, 16 h, 16 h incubation.
[5] abbreviates: cell free Mcl-1:Bim TR-FRET, recombinant human Mcl-1 (171-327).
Where [6] appears, read: Homo sapiens, OPM-2, 16 h, 16 h.

T1 sequence (Q07820 171-327): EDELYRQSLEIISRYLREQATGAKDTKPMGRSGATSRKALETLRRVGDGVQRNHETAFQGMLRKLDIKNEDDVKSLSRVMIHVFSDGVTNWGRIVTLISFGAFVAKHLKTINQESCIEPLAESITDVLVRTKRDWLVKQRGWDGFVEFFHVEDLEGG

On to `CC[C@@H]1CC/C=C/[C@H](OCc2ncccn2)[C@@H]2CC[C@H]2CN2C[C@@]3(CCCc4cc(Cl)ccc43)COc3ccc(cc32)C(=O)NS1(=O)=O` [Example 977, (1S,3′R,6′R,7′S,8′E,12′R)-6-chloro-12′-ethyl-7′-(2-pyrimidinylmethoxy)-3,4-dihydro-2H,15′H-spiro[naphthalene-1,22′-[20]oxa[13]thia[1,14]diazatetracyclo[14.7.2.0^3,6.0^19,24]pentacosa [8,16,18,24]tetraen]-15′-one 13′,13′-dioxide], for which the IC50 was found to be 0.329 nM in test [1] (setting [3]) and 266 nM in test [2] (setting [4]).

Regarding `NC(=O)OC[C@@H]1CC/C=C/[C@H](O)[C@@H]2CC[C@H]2CN2C[C@@]3(CCCc4cc(Cl)ccc43)COc3ccc(cc32)C(=O)NS1(=O)=O` (single isomer, unassigned) [Example 611], the IC50 in test [1] (setting [5]) was 0.275 nM; in test [2] (setting [6]), 8490 nM.

For the molecule `COCC[C@@H]1/C=C/[C@@H]2CC[C@H]2CN2C[C@@]3(CCCc4cc(Cl)ccc43)COc3ccc(cc32)C(=O)NS(=O)(=O)[C@H](C)[C@@H](C)C1` [Example 114, (1S,3′R,6′S,7′E,9′R,11′S,12′R)-6-chloro-9′-(2-methoxyethyl)-11′,12′-dimethyl-3,4-dihydro-2H,15′H-spiro[naphthalene-1,22′-[20]oxa[13]thia[1,14]diazatetracyclo[14.7.2.0^3,6.0^19,24]pentacosa[7,16,18,24]tetraen]-15′-one 13′,13′-dioxide], the IC50 in test [1] (setting [3]) came out at 3.6 nM; in test [2] (setting [6]) it was 3400 nM.

`CCOC[C@@H]1[C@@H](C)C/C=C/[C@H](O)[C@@H]2CC[C@H]2CN2C[C@@]3(CCCc4cc(Cl)ccc43)COc3ccc(cc32)C(=O)NS1(=O)=O` (single isomer, unassigned) [Example 466]: the values for the IC50 in test [1] (setting [3]) and in test [2] (16 h) were 0.331 nM and 128 nM, respectively.

In the case of `CC(C)NC(=O)CO[C@H]1/C=C/C[C@H](C)[C@@H](C)S(=O)(=O)NC(=O)c2ccc3c(c2)N(C[C@@H]2CC[C@H]21)C[C@@]1(CCCc2cc(Cl)ccc21)CO3` [Example 296, 2-(((1S,3′R,6′R,7′S,8′E,11′S,12′R)-6-chloro-11′,12′-dimethyl-13′,13′-dioxido-15′-oxo-3,4-dihydro-2H-spiro[naphthalene-1,22′-[20]oxa[13]thia[1,14]diazatetracyclo[14.7.2.0^3,6.0^19,24]pentacosa [8,16,18,24]tetraen]-7′-yl)oxy)-N-(1-methylethyl)acetamide], the figures for the IC50 in test [1] (setting [3]) and in test [2] (setting [6]) were 0.496 nM and 524 nM, respectively.

In the case of `C[C@@H]1C/C=C/[C@H](O)[C@@H]2CC[C@H]2CN2C[C@@]3(CCCc4cc(Cl)ccc43)COc3ccc(cc32)C(=O)NS(=O)(=O)N1` [Example 71, (1S,3′R,6′R,7′S,8′E,11R)-6-chloro-7′-hydroxy-11′-methyl-3,4-dihydro-2H,15′H-spiro[naphthalene-1,22′-[20]oxa[13]thia[1,12,14]triazatetracyclo[14.7.2.0^3,6.0^19,24]pentacosa[8,16,18,24]tetraen]-15′-one 13′,13′-dioxide], the IC50 in test [1] (setting [3]) came out at 2.62 nM; in test [2] (setting [6]) it was 3160 nM.

Regarding `COC1CN(CCO[C@H]2/C=C/C[C@H](C)[C@@H](C)S(=O)(=O)NC(=O)c3ccc4c(c3)N(C[C@@H]3CC[C@H]32)C[C@@]2(CCCc3cc(Cl)ccc32)CO4)C1` [Example 525, (1S,3′R,6′R,7′S,8′E,11′S,12′R)-6-chloro-7′-(2-(3-methoxy-1-azetidinyl)ethoxy)-11′,12′-dimethyl-3,4-dihydro-2H,15′H-spiro[naphthalene-1,22′-[20]oxa[13]thia[1,14]diazatetracyclo[14.7.2.0^3,6.0^19,24]pentacosa [8,16,18,24]tetraen]-15′-one 13′,13′-dioxide 2,2,2-trifluoroacetic Acid], the IC50 in test [1] (setting [5]) was found to be 0.416 nM; in test [2] (setting [6]) it was 186 nM.

On to `CC[C@@H]1CC/C=C/[C@H](OCCS(=O)(=O)N(C)C)[C@@H]2CC[C@H]2CN2C[C@@]3(CCCc4cc(Cl)ccc43)COc3ccc(cc32)C(=O)NS1(=O)=O` [Example 989, 2-(((1S,3′R,6′R,7′S,8′E,12′R)-6-chloro-12′-ethyl-13′,13′-dioxido-15′-oxo-3,4-dihydro-2H-spiro[naphthalene-1,22′-[20]oxa[13]thia[1,14]diazatetracyclo[14.7.2.0^3,6.0^19,24]pentacosa [8,16,18,24]tetraen]-7′-yl)oxy)-N,N-dimethylethanesulfonamide], for which the IC50 in test [1] (setting [3]) was 0.851 nM; in test [2] (setting [4]) it was 330 nM.

For the molecule `O=C1NS(=O)(=O)[C@H](CC2CCOCC2)CC/C=C/[C@H](O)[C@@H]2CC[C@H]2CN2C[C@@]3(CCCc4cc(Cl)ccc43)COc3ccc1cc32` (single isomer, unassigned) [Example 187], the half-inhibitory concentration (IC50) in test [1] (setting [3]) amounted to 0.248 nM; in test [2] (16 h), 426 nM.

Turning to `C[C@H]1C/C=C/[C@H](O)[C@@H]2CC[C@H]2CN2C[C@@]3(CCCc4cc(Cl)ccc43)COc3ccc(cc32)C(=O)NS(=O)(=O)N1CCN1CCOCC1` [Example 66, (1S,3′R,6′R,7′S,8′E,11′S)-6-chloro-7′-hydroxy-11′-methyl-12′-(2-(4-morpholinyl)ethyl)-3,4-dihydro-2H,15′H-spiro[naphthalene-1,22′-[20]oxa[13]thia[1,12,14]triazatetracyclo[14.7.2.0^3,6.0^19,24]pentacosa[8,16,18,24]tetraen]-15′-one 13′,13′-dioxide], the results for the IC50 in test [1] (setting [3]) and in test [2] (setting [6]) were 2.31 nM and 492 nM, respectively.

Regarding `CC1CC(=O)N(C)CC2CCC2CN2CC3(CCCc4cc(Cl)ccc43)COc3ccc(cc32)C(=O)NS(=O)(=O)C1C` (single isomer, unassigned) [Example 152], the IC50 stood at 19.6 nM in test [1] (setting [3]) and 29200 nM in test [2] (setting [6]).

Regarding `O=C1NS(=O)(=O)[C@@H]2CCC[C@H]2C/C=C/[C@H](O)[C@@H]2CC[C@H]2CN2C[C@@]3(CCCc4cc(Cl)ccc43)COc3ccc1cc32` (single isomer, unassigned) [Example 326], the IC50 came to 5.51 nM in test [1] (setting [3]) and 20000 nM in test [2] (16 h).

Take `CCOC(=O)NCCO[C@H]1/C=C/C[C@H](C)[C@@H](C)S(=O)(=O)NC(=O)c2ccc3c(c2)N(C[C@@H]2CC[C@H]21)C[C@@]1(CCCc2cc(Cl)ccc21)CO3` [Example 736, ethyl (2-(((1S,3′R,6′R,7′S,8′E,11′S,12′R)-6-chloro-11′,12′-dimethyl-13′, 13′-dioxido-15′-oxo-3,4-dihydro-2H-spiro[naphthalene-1,22′-[20]oxa[13]thia[1,14]diazatetracyclo[14.7.2.0^3,6.0^19,24]pentacosa[8,16,18,24]tetraen]-7′-yl)oxy)ethyl)carbamate]: the IC50 was 0.891 nM in test [1] (setting [5]) and 192 nM in test [2] (setting [6]).

For the molecule `COCCOCC[C@@H]1[C@@H](C)C/C=C/[C@H](O)[C@@H]2CC[C@H]2CN2C[C@@]3(CCCc4cc(Cl)ccc43)COc3ccc(cc32)C(=O)NS1(=O)=O` (single isomer, unassigned) [Example 401], the IC50 in test [1] (setting [3]) was found to be 0.531 nM; in test [2] (16 h), 452 nM.

Consider `COC(=O)CCO[C@H]1/C=C/C[C@H](C)NS(=O)(=O)NC(=O)c2ccc3c(c2)N(C[C@@H]2CC[C@H]21)C[C@@]1(CCCc2cc(Cl)ccc21)CO3` [Example 70, methyl 3-(((1S,3′R,6′R,7′S,8′E,11′S)-6-chloro-11′-methyl-13′,13′-dioxido-15′-oxo-3,4-dihydro-2H-spiro [naphthalene-1,22′-[20]oxa[13]thia[1,12,14]triazatetracyclo[14.7.2.0^3,6.0^19,24]pentacosa[8,16,18,24]tetraen]-7′-yl)oxy)propanoate], for which the IC50 in test [1] (setting [3]) worked out at 1.16 nM; in test [2] (setting [6]) it was 44.2 nM.

Consider `Cc1nnc(C[C@@H]2CC/C=C/[C@H](O)[C@@H]3CC[C@H]3CN3C[C@@]4(CCCc5cc(Cl)ccc54)COc4ccc(cc43)C(=O)NS2(=O)=O)o1` (single isomer, unassigned) [Example 564], for which the IC50 in test [1] (setting [5]) came out at 0.308 nM; in test [2] (16 h), 3040 nM.

Consider `CCOC(=O)CCO[C@H]1/C=C/CC[C@@H](CC)S(=O)(=O)NC(=O)c2ccc3c(c2)N(C[C@@H]2CC[C@H]21)C[C@@]1(CCCc2cc(Cl)ccc21)CO3` [Example 1009, ethyl 3-(((1S,3′R,6′R,7′S,8′E,12′R)-6-chloro-12′-ethyl-13′,13′-dioxido-15′-oxo-3,4-dihydro-2H-spiro[naphthalene-1,22′-[20]oxa[13]thia[1,14]diazatetracyclo[14.7.2.0^3,6.0^19,24]pentacosa [8,16,18,24]tetraen]-7′-yl)oxy)propanoate], for which the concentration for half-maximal inhibition (IC50) turned out to be 1.23 nM in test [1] (setting [3]) and 702 nM in test [2] (setting [4]).

With `CCC1C(C)C(C)C=CC(O)C2CCC2CN2CC3(CCCc4cc(Cl)ccc43)COc3ccc(cc32)C(=O)NS1(=O)=O` (single isomer, unassigned) [Example 1055], the figures for the IC50 in test [1] (setting [3]) and in test [2] (16 h incubation) were 0.394 nM and 257 nM, respectively.

In the case of `C[C@@H]1[C@@H](C)C/C=C/[C@H](OCCNc2ccccc2)[C@@H]2CC[C@H]2CN2C[C@@]3(CCCc4cc(Cl)ccc43)COc3ccc(cc32)C(=O)NS1(=O)=O` [Example 11, (1S,3′R,6′R,7′S,8′E,11′S,12′R)-6-chloro-11′,12′-dimethyl-7′-(2-(phenylamino)ethoxy)-3,4-dihydro-2H,15′H-spiro[naphthalene-1,22′-[20]oxa[13]thia[1,14]diazatetracyclo[14.7.2.0^3,6.0^19,24]pentacosa[8,16,18,24]tetraen]-15′-one 13′,13′-dioxide], the IC50 in test [1] (setting [3]) was found to be 5.22 nM; in test [2] (setting [6]), 3650 nM.

In the case of `C[C@@H]1[C@@H](C)CCCC[C@H](O)[C@@H]2CC[C@H]2CN2C[C@@]3(CCCc4cc(Cl)ccc43)COc3ccc(cc32)C(=O)NS1(=O)=O` (single isomer, unassigned) [Example 556], the IC50 amounted to 1.65 nM in test [1] (setting [5]) and 781 nM in test [2] (16 h).
